Assay results from patent publication US20260215418A1, “HYDROCARBON ALCOHOLS AND THEIR DERIVATIVES AS SYNERGISTS IN PESTICIDE ACTIVITY” (priority 2022, published 2026).
Where two headings read alike, the source gives them in different places.

What was measured:
Musca domestica L. = test: Contact test on non-porous tile, Musca domestica; type: in vivo; details: for synergizing effect on Cypermethrin: Musca domestica L., synergist applied with Cypermethrin; for mortality at 680 µg/mL: Musca domestica, single substance alone, 0.68 mg/ml, 48 h, read-out: Mortality %/time (h)
Method: 1 ml of Composition 1 was applied to the tile. […] 1 ml of Composition 8a was distributed on the tile. […] 1 ml of Composition 8a was distributed on a tile. […] At the end of the 30 minutes, the flies were transferred to an untreated area.
1 ml of Composition 3 was applied to the tile. […] 1 ml of Composition 8c was distributed on the tile. […] 1 ml of Composition 8c was distributed on a tile. […] At the end of the 30 minutes, the flies were transferred to an untreated area.
1 ml of Composition 9a was distributed on the tile. […] 1 ml of Composition 9a was distributed on a tile. […] At the end of the 30 minutes, the flies were transferred to an untreated area. […] 1 ml of Composition 10a was distributed on the tile. […] 1 ml of Composition 10a was distributed on a tile. […] At the end of the 30 minutes, the flies were transferred to an untreated area. […] 1 ml of Composition 8c was distributed on the tile. […] 1 ml of Composition 8c was distributed on a tile. […] At the end of the 30 minutes, the flies were transferred to an untreated area.
1 ml of Composition 5a, was distributed on the tile. […] 1 ml of Composition 6a was distributed on the tile. […] 1 ml of Composition 7a was distributed on the tile.
1 ml of Composition 3 was distributed on the tile. […] 1 ml of Composition 9a was distributed on the tile. […] 1 ml of Composition 11a was distributed on a tile. […] 1 ml of Composition 12a was distributed on a tile.
1 ml of Composition 3 was distributed on the tile. […] 1 ml of Composition 17a was distributed on a tile. […] 1 ml of Composition 18a was distributed on a tile. […] Each experiment (A-C) was conducted in duplicate.
1 ml of Composition 23a was distributed on the tile. […] 1 ml of Composition 20a was distributed on a tile. […] Each experiment (A-B) was conducted in duplicate.
1 ml of Composition 3 was distributed on the tile. […] 1 ml of Composition 25a was distributed on a tile. […] Each experiment (A-B) was conducted in duplicate.
1 ml of Composition 23a was distributed on the tile. […] 1 ml of Composition 27a was distributed on a tile. […] Each experiment (A-B) was conducted in duplicate.
1 ml of Composition 26a was distributed on a tile. […] 1 ml of Composition 26b was distributed on a tile. […] 1 ml of Composition 26c was distributed on a tile.
1 ml of Composition 22a was distributed on a tile. […] 1 ml of Composition 22b was distributed on a tile. […] 1 ml of Composition 22c was distributed on a tile.
1 ml of Composition 23a was distributed on the tile. […] 1 ml of Composition 44a was distributed on a tile.
1 ml of Composition 33 was distributed on a tile. […] 1 ml of Composition 33 was distributed on a tile. […] At the end of the 30 minutes, the flies were transferred to an untreated area.
1 ml of Composition 1 was distributed on the tile. […] 1 ml of Composition 34 was distributed on a tile. […] 1 ml of Composition 34 was distributed on a tile. […] At the end of the 30 minutes, the flies were transferred to an untreated area.
1 ml of Composition 3 was distributed on the tile. […] 1 ml of Composition 31a was distributed on a tile. […] 1 ml of Composition 31b was distributed on a tile. […] 1 ml of Composition 31b was distributed on a tile. […] At the end of the 30 minutes, the flies were transferred to an untreated area. […] 1 ml of Composition 38a was distributed on a tile. […] 1 ml of Composition 38a was distributed on a tile. […] At the end of the 30 minutes, the flies were transferred to an untreated area.
G) According to the invention. 1 ml of Composition 40a was distributed on a tile. […] Subsequently, after waiting for the solvent to evaporate, 10 flies were placed on top of the treated til

Blatta orientalis = details: for synergizing effect on Cypermethrin / Mortality %/time (h) (application): Blatta orientalis; for synergizing effect on Cypermethrin: synergist applied with Cypermethrin; for Mortality %: insects on treated tile; for Mortality %/time (h) (application): Table 37, concentrations in mg/ml in label
Method: Method: Contact test on non-porous tile measuring 400 cm^2 at a temperature of 28° C. Test duration: up to 72 hours after exposure of the insect to the insecticidal active substance.
(§1) Three tests were performed in parallel, A, B, and C, as follows: • A) Comparative. 1 ml of Composition 2 was applied to the tile. After waiting for the complete evaporation of the solvent, 10 cockroaches were placed on top of the treated tile, starting the test. • B) According to the invention. 1 ml of Composition 8b was distributed on the tile. After waiting for the complete evaporation of the solvent, 1 ml of Composition 2 was added to the same tile. Subsequently, after waiting for the solvent to evaporate, 10 cockroaches were placed on top of the treated tile, starting the test. • C) According to the invention. 1 ml of Composition 8b was distributed on a tile. After waiting for the complete evaporation of the solvent, 10 cockroaches were placed for 30 minutes on top of the treated tile. At the end of the 30 minutes, the cockroaches were transferred to an untreated area.
Method: Contact test on non-porous tile measuring 400 cm^2 at a temperature of 28° C. Test duration: up to 120 hours after exposure of the insect to the insecticidal active substance.
as §1, with “4a” for “2”, “8d” for “8b”, “After” for “Subsequently, after”
Six tests were performed in parallel, A, B, C, D, E and F, as follows: • A) Comparative. 1 ml of Composition 9b was distributed on the tile. After waiting for the complete evaporation of the solvent, 1 ml of Composition 4a was added to the same tile. Subsequently, after waiting for the solvent to evaporate, 10 cockroaches were placed on top of the treated tile, starting the test. • B) Comparative. 1 ml of Composition 9b was distributed on a tile. After waiting for the complete evaporation of the solvent, 10 cockroaches were placed for 30 minutes on top of the treated tile. At the end of the 30 minutes, the cockroaches were transferred to an untreated area. […] 1 ml of Composition 10b was distributed on the tile. After waiting for the complete evaporation of the solvent, 1 ml of Composition 4a was added to the same tile. Subsequently, after waiting for the solvent to evaporate, 10 cockroaches were placed on top of the treated tile, starting the test. • D) Comparative. 1 ml of Composition 10b was distributed on a tile. After waiting for the complete evaporation of the solvent, 10 cockroaches were placed for 30 minutes on top of the treated tile. At the end of the 30 minutes, the cockroaches were transferred to an untreated area. […] 1 ml of Composition 8d was distributed on the tile. After waiting for the complete evaporation of the solvent, 1 ml of Composition 4a was added to the same tile. Subsequently, after waiting for the solvent to evaporate, 10 cockroaches were placed on top of the treated tile, starting the test. • F) According to the invention. 1 ml of Composition 8d was distributed on a tile. After waiting for the complete evaporation of the solvent, 10 cockroaches were placed for 30 minutes on top of the treated tile. At the end of the 30 minutes, the cockroaches were transferred to an untreated area.

Blatta lateralis = test: Contact test on non-porous tile, Blatta lateralis; type: in vivo; design: Mortality %: concentration or dose not given beside the values; details: for Mortality %: 25° C, insects on treated tile; for Mortality %/time (h) (application): Table 37, Blatta lateralis, concentrations in mg/ml in label
Method: 1 ml of Composition 24 was distributed on the tile. […] 1 ml of Composition 20c was distributed on a tile. […] 1 ml of Composition 20d was distributed on a tile.
1 ml of Composition 24 was distributed on the tile. […] 1 ml of Composition 28 was distributed on a tile. […] Each experiment (A-B) was conducted in duplicate.
1 ml of Composition 24 was distributed on the tile. […] 1 ml of Composition 21 was distributed on a tile.
1 ml of Composition 4b was distributed on the tile. […] 1 ml of Composition 31c was distributed on a tile. […] 1 ml of Composition 31d was distributed on a tile. […] 1 ml of Composition 31d was distributed on a tile.
1 ml of Composition 24 was distributed on the tile. […] 1 ml of Composition 35 was distributed on a tile. […] 1 ml of Composition 40b was distributed on a tile. […] 1 ml of Composition 42 was distributed on a tile.

CCCCCCCCCCC(CO)CCCCCCCC (centres unmarked) [2-octyldodecanol] was tested, and the “synergizing effect on Cypermethrin” value (Musca domestica L.) was “synergistic effect, comparable to the activity shown by PBO”, the mortality at 680 µg/mL (Musca domestica L.) was 20% and the “synergizing effect on Cypermethrin” value (Blatta orientalis) was “superior to that shown with PBO”.

For CC1(C)C(C=C(Cl)Cl)C1C(=O)OC(C#N)c1cccc(Oc2ccccc2)c1 (centres unmarked) [Composition 4b, Cypermethrin], the Mortality % (Blatta lateralis; Example 31, 24 h) was 0%, the Mortality % (Blatta lateralis; Example 31, 48 h) was 40% and the “Mortality %/time (h) (application)” value (Blatta lateralis; 48 h) was 40/48 ^ %.

Compound COP(=O)(OC)SCn1c(=O)oc2cc(Cl)cnc21 [Composition 23b, Azamethiphos] has a Mortality % (Blatta orientalis; Example 15, 21° C, 24 h) of 10%, a Mortality % (Blatta orientalis; Example 15, 21° C, 48 h) of 17% and a Mortality % (Blatta orientalis; Example 15, 21° C, 72 h) of 23%. It also gave a Mortality % (Blatta orientalis; Example 21, 25° C, 48 h) of 17%, a Mortality % (Blatta orientalis; Example 25, 21° C, 24 h) of 10% and a Mortality % (Blatta orientalis; Example 25, 21° C, 48 h) of 17%. For the same compound, the Mortality % (Blatta orientalis; Example 25, 21° C, 72 h) was 23% and the “Mortality %/time (h) (application)” value (Blatta orientalis; 48 h) was 17/48 ^ %.

With O=[N+]([O-])NC1=NCCN1Cc1ccc(Cl)nc1 [Composition 24, Imidacloprid] the Mortality % (Blatta lateralis; Example 16, 48 h) was 20%, the Mortality % (Blatta lateralis; Example 22, 48 h) was 20% and the Mortality % (Blatta lateralis; Example 26, 48 h) was 20%. For the same compound, the Mortality % (Blatta lateralis; Example 33, 48 h) was 20% and the “Mortality %/time (h) (application)” value (Blatta lateralis; 48 h) was 20/48 ^ %.

In the case of CCCCCCCC/C=C\CCCCCCCCOC(C)=O [Composition 25b, Oleyl acetate], the “Mortality %/time (h) (application)” value (Blatta orientalis; 48 h) is reported as 0/48 ^ %.

In the case of CCCCC(O)CO (centres unmarked) [Composition 31c, 1,2-hexandiol], the “Mortality %/time (h) (application)” value (Blatta lateralis; 48 h, listed as 1,2-hexandiol (0.05)) is reported as 14/48 ^ %.

For CCCCC(O)CO (centres unmarked) [Composition 31d, 1,2-hexandiol], the “Mortality %/time (h) (application)” value (Blatta lateralis; 48 h, listed as 1,2-hexandiol (0.07)) was 20/48 ^ %.

With CC1(C)C(C=C(Cl)Cl)C1C(=O)OC(C#N)c1cccc(Oc2ccccc2)c1 (centres unmarked) [Composition 46b, Cypermethrin] the Mortality % (Blatta orientalis; Example 36, 25° C, 24 h) was 8%, the Mortality % (Blatta orientalis; Example 36, 25° C, 48 h) was 17% and the “Mortality %/time (h) (application)” value (Blatta orientalis; 48 h, listed as Cypermethrin (0.10)) was 17/48 ^ %.

For CCCCC(CC)COC(=O)OCC(CC)CCCC (centres unmarked) [bis(2-ethylhexyl)-carbonate], the “synergizing effect on Cypermethrin” value (Musca domestica L.) was “high synergizing effect”, the mortality at 680 µg/mL (Musca domestica L.) was 19% and the “synergizing effect on Cypermethrin” value (Blatta orientalis) was “synergizing effect”.

CCCCCCCCCCCCOC(C)=O [dodecyl acetate] was tested, and the “synergizing effect on Cypermethrin” value (Blatta orientalis) was “excellent-fine synergizing effect”.

In the case of CCCCCCCCOC(C)=O [n-Octyl acetate], the “synergizing effect on Cypermethrin” value (Blatta orientalis) is reported as “excellent-fine synergizing effect”.

In the case of Alcohol oleic [Composition 20b], the “Mortality %/time (h) (application)” value (Blatta orientalis; 48 h) is reported as 0/48 ^ %.

For oleic alcohol [Composition 8b], the “Mortality %/time (h) (application)” value (Blatta orientalis; 48 h) was 0/48 ^ %.
